These are literature values, as cited in patent publication US20160058814A1, “PLANT EXTRACTS AND RELATED COMPOSITIONS, METHODS AND SYSTEMS” (priority 2014, published 2016).

Each structure is given as a SMILES string.

For the data set the following is noted: in vivo.

For the compound `O=c1ccc2ccccc2o1` [Coumarin, coumarin], the LD50 is given as 275 mg/kg.

In general, LD50 refers to the dose at which mortality reaches 50%.
